# Legend:
# U87 glioma cuboids = experiment: Drug treatment of U87 glioma cuboids on the microfluidic device, SYTOX green/Hoechst cell death staining; format: cell-based; conditions: for cell death response, mean fluorescence ratio SG dead nuclear to Hoechst pan-nuclear: 2 days (day 1 to day 3), U87 cuboids in device
# Method: U87 cuboids were cultured in collagen hydrogel. We prepared 80% collagen (Corning rat tail collagen type 1, 354236, 3-4 mg/mL), 10% 10×PBS, and 10% serum-free medium. We then used filtered-sterilized 1M NaOH to neutralize the pH to ˜7.2. For culture in 6 well plates, cuboids were cultured in 1 mL collagen on top of a 0.4 μm filter Transwell PFTE membrane insert (PICMORG50, Millipore) with 1.3 mL culture medium placed below. Cuboids were cultured both with and without an additional layer of pre-gelled 1 mL collagen below with similar histology and staining observed, apart from a relatively flatter shape often seen without the extra collagen layer. The culture medium contained Neurobas al-A medium (Invitrogen) with 25% heat-inactivated horse serum (Sigma), Glutamax (Invitrogen), 2× penicillin/streptomycin (Invitrogen), and growth factors (EGF 20 ng/mL and FGF 20 ng/mL, Preprotech or Invitrogen). Cisplatin (3 mM stock in dH2O, MedChem Express) was diluted in cell culture medium for the drug treatment experiment. Liver cuboids were cultured in 1 mL of collagen hydrogel on a Millipore insert with constant shaking. Culture medium was William's Medium (with L-glutamine, Invitrogen, Scotland) supplemented with 25 mM glucose (Sigma-Aldrich, USA), 30 nM insulin (ITS+premix, Zen-Bio, Inc., USA), 1 nM EGF (Preprotech), 5% Pen Strep (Sigma-Aldrich, USA), 100 nM glucagon (Sigma-Aldrich, USA). Live U87 glioma cuboids were stained for 1 hour, 37° C., with the following dyes (individually or in combination) diluted in culture medium: Cell Tracker Green CMFDA (Invitrogen, 10 μM), Cell Tracker Orange CMRA (Invitrogen, 10 μM), Hoechst (H; Invitrogen, 16 μM), and/or SYTOX green (SG; Invitrogen, 0.01 μM). […] Mean SG fluorescence was normalized to the average value of untreated cuboids. […] As a straightforward simple measure of cell viability, we measured the mean fluorescence ratio in epifluorescence images of SG dead nuclear fluorescence to Hoechst pan-nuclear fluorescence (FIG. 12B). […]
# U87 glioma slices = experiment: Previous experiments with U87 glioma slices on and off a microfluidic device, SG/H live viability staining; format: cell-based; conditions: 30 and 100 μM
compound,measurement,setting,value
N.N.[Cl][Pt][Cl] [cisplatin],"cell death response, mean fluorescence ratio SG dead nuclear to Hoechst pan-nuclear",U87 glioma cuboids; 30 μM,statistically significant response
same,mean increase of SG (SYTOX green dead stain) fluorescence normalized to the mean,"U87 glioma cuboids; 100 μM, 2-day maximal drug treatment, used as threshold for death",1.4
same,"cell death response, mean fluorescence ratio SG dead nuclear to Hoechst pan-nuclear",U87 glioma cuboids; 100 μM,showing a trend
same,response by SG/H live viability staining,U87 glioma slices,cell death

# Source: patent US12491514B2, “Device, system, and method for trapping tissue samples” (University of Washington, priority 2019, dated 2025)
